The values below are quoted from earlier work in patent publication US20180338982A1, “Cooperative Medication Combination Systems” (priority 2017, published 2018).

The conditions of the series: in vivo.

Each structure is given as a SMILES string.

Take `CCC(C)(C)C(=O)O[C@H]1C[C@@H](C)C=C2C=C[C@H](C)[C@H](CC[C@@H]3C[C@@H](O)CC(=O)O3)[C@H]21` [Simvastatin]: the Half-life is recorded as 2 h.
